# Test results taken from patent US20170226145A1, “METHODS OF EXTRACTION AND PURIFICATION FROM STEVIA REBAUDIANA OF COMPOSITIONS WITH ENHANCED REBAUDIOSIDE-M CONTENT, USES OF SAID COMPOSITION AND NATURAL SWEETENER COMPOSITIONS WITH SAID COMPOSITION” (GLG LIFE TECH CORPORATION, priority 2014, published 2017).
# What was measured:
# Heat and pH stability = assay type: physicochemical; details: RM obtained in accordance with the invention
# [1] = Solubility in water and solvents; assay type: physicochemical
# [2] = Sweetness relative to sucrose (general statements, Table 1)
# Text: The physical and sensory properties are well studied generally only for Stevioside (STV) and Rebaudioside A. The sweetness potency of Stevioside is around 210 times higher than sucrose, Rebaudioside A is between 200 and 400 times, and Rebaudioside C is between 40 and 50 times and Dulcoside A around 30 times. Traditionally, Rebaudioside A is considered to have the most favorable sensory attributes of the four major steviol glycosides (see Table 1): […]
# [3] = glycosides of wild type stevia; cited from earlier work
# [4] = Example 8 sample test results of sweetener solutions (Table 2)
# Text: Reb M 95, Reb C 85, Reb D 95, Reb A 97, Sucrose, New Blends RA97 and RM95, New Blends RA97, RM95 and RC85, New Blends RM95, RA97 and Sucrose, New Blends RM95, RA97 and Erythritol, Purified Water. [table]
compound,measurement,setting,value
"C=C1C[C@@]23CC[C@H]4[C@@](C)(CCC[C@@]4(C)C(=O)O[C@@H]4O[C@H](CO)[C@@H](O)[C@H](O[C@@H]5O[C@H](CO)[C@@H](O)[C@H](O)[C@H]5O)[C@H]4O[C@@H]4O[C@H](CO)[C@@H](O)[C@H](O)[C@H]4O)[C@@H]2CC[C@]1(O[C@@H]1O[C@H](CO)[C@@H](O)[C@H](O[C@@H]2O[C@H](CO)[C@@H](O)[C@H](O)[C@H]2O)[C@H]1O[C@@H]1O[C@H](CO)[C@@H](O)[C@H](O)[C@H]1O)C3 [RM, Rebaudioside M]",heat and pH stability,Heat and pH stability,heat and pH-stable
same,"solubility in acetone, benzene, chloroform, and ether",[1],insoluble
same,"solubility in diluted solutions of methanol, ethanol, n-propanol, and isopropanol",[1],soluble
same,solubility of RM in water,[1]; increases with an increase in temperature,around 0.3%
same,times sweeter than sugar,[2]; compared to a 10% sucrose solution,about 200 times
same,times sweetness of sucrose,[2]; purified Reb M of the invention,more than 300 times
C=C1C[C@@]23CC[C@H]4[C@@](C)(CCC[C@@]4(C)C(=O)O[C@@H]4O[C@H](CO)[C@@H](O)[C@H](O)[C@H]4O)[C@@H]2CC[C@]1(O[C@@H]1O[C@H](CO)[C@@H](O)[C@H](O[C@@H]2O[C@H](CO)[C@@H](O)[C@H](O)[C@H]2O)[C@H]1O[C@@H]1O[C@H](CO)[C@@H](O)[C@H](O)[C@H]1O)C3 [Rebaudioside A],"sweetness, × of sugar",[3],350-450 × of sugar
C=C1C[C@@]23CC[C@H]4[C@@](C)(CCC[C@@]4(C)C(=O)O[C@@H]4O[C@H](CO)[C@@H](O)[C@H](O)[C@H]4O)[C@@H]2CC[C@]1(O[C@@H]1O[C@H](CO)[C@@H](O)[C@H](O)[C@H]1O[C@@H]1O[C@H](CO)[C@@H](O)[C@H](O)[C@H]1O)C3 [Stevioside],"sweetness, × of sugar",[3],250-300 × of sugar
OC[C@H]1O[C@@](CO)(O[C@H]2O[C@H](CO)[C@@H](O)[C@H](O)[C@H]2O)[C@@H](O)[C@@H]1O [Sucrose],Content/100 ml,[4]; amount per 100 ml in the solution that has sweetness 9° (9 g sucrose),9 g
same,Sweetness of Solution,[4]; solution at the Content/100 ml of Table 2,9°
Rebaudioside C,"sweetness, × of sugar",[3],40-50 × of sugar
